As usually defined, the Ki is the equilibrium dissociation constant of an inhibitor or competing ligand from its target.

Assay [1] deals with Beta-secretase 1 (Homo sapiens, UniProt P56817). In words: Binding affinity to human BACE1 catalytic domain using QSY7-APPswe-Eu as substrate preincubated for 30 mins followed by substrate addition measured after 1.5 hrs by HTRF assay. On the technique in general: Time-resolved FRET reads energy transfer from a long-lived donor to a nearby acceptor.
Assay [2] concerns the target T1, Beta-secretase 2 (Homo sapiens, UniProt Q9Y5Z0).
T1 sequence (Q9Y5Z0 whole entry): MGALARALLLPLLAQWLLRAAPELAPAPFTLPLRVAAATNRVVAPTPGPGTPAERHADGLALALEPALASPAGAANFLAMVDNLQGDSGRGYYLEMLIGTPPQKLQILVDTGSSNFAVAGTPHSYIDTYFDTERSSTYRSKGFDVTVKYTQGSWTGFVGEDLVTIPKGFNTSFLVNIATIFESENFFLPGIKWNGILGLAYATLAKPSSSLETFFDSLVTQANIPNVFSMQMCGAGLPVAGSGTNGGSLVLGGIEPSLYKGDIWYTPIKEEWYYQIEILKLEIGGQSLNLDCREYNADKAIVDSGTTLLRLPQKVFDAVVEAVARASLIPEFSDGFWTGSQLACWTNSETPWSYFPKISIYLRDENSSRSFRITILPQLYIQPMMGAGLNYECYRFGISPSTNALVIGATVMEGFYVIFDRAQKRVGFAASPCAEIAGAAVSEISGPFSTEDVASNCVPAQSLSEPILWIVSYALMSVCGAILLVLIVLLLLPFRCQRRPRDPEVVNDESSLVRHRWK
In words: Binding affinity to human autoBACE2 using QSY7-APPswe-Eu as substrate preincubated for 30 mins followed by substrate addition measured after 90 mins by HTRF assay.

Sequence of Beta-secretase 1 (P56817 whole entry, the tested form may be a part): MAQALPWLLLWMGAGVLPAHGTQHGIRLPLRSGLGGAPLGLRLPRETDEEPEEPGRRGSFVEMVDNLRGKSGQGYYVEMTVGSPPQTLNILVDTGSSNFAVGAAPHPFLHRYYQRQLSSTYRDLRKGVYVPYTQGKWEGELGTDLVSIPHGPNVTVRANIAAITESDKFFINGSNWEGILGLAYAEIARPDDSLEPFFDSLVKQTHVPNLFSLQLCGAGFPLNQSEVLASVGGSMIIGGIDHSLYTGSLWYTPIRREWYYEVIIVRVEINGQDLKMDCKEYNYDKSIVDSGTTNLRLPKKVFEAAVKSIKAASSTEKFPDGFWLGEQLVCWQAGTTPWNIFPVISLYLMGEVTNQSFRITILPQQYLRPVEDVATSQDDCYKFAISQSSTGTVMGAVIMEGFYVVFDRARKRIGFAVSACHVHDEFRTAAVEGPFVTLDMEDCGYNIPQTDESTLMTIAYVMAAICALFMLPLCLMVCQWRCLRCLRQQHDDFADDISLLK

Take `CN1C(=N)N[C@@]2(c3cc(NC(=O)c4nccc5cc(Br)cnc45)ccc3F)CCC[C@H]2S1(=O)=O`: the Ki is 4 nM in assay [1] and 0.5 nM in assay [2].
For `COc1cnc2c(C(=O)Nc3ccc(F)c([C@]45CCC[C@H]4S(=O)(=O)N(C)C(=N)N5)c3)ccnc2c1`, in that order: 206 nM and 198 nM.
For `COc1cnc2c(C(=O)Nc3ccc(F)c([C@]45CCC[C@H]4S(=O)(=O)N(C)C(=N)N5)c3)nccc2n1`, in that order: 36 nM and 9 nM.
Turning to `COc1cnc2c(C(=O)Nc3ccc(F)c([C@]45CCC[C@H]4S(=O)(=O)N(C)C(=N)N5)c3)nccc2c1`, the values for the inhibition constant (Ki) in assay [1] and in assay [2] were 31 nM and 10 nM, respectively.
